“Also recorded” adds a separate entry of the source. Peptide text beside a SMILES is read from it.
What was measured:
[1] = system: Balb/c mice exposed to TBI; test: Survival after TBI (BM syndrome / ARS); format: in vivo, mouse (Balb/c); conditions: for mice survived: Balb/c
[2] = Stool hemoccult score after sub-TBI; format: in vivo, mouse (Balb/c, C57BL/6); conditions: Balb/c, 12.5 Gy sub-TBI; FGF-P 2 mg/kg im 15 min post irradiation; Amifostine iv 30 min pre-irradiation; P<0.05
Source text: There are commonly employed assays known to be relevant to both mouse and man for determining relative endpoints. These include: 1) stool blood: mucosal barrier breakdown is associated with bleeding of the small bowel; therefore, a hemoccult analysis with a commercial kit (BD Cat #64151) was used in the preliminary data at 3 days after sub-TBI. The time course and frequency of GI bleeding; 2) stool formation: the GI functions of digestion, absorption of nutrition and water, and the regular movement of intestinal muscle are required for formation of normal stool can be measured. All these functions can be upset by radiation. For example, loss of villi leads to decreased fluid absorption and diarrhea. The colon was excised and examined visually for the presence of formed stool at 3.5 days post-IR; 3) endotoximia: bacterial translocation can occur at early times following gastrointestinal radiation exposure.
2) A standard scoring scale was used to evaluate stool formation (diarrhea). The bowel was extracted from the abdomen and visually inspected. Formed stool was easily distinguished from semi-solid and liquid stool as it passed from the ascending to descending colon. FIGS. 7B and 7C show the irradiated bowel in controls compared with FGF-P-treated Balb/c mice. The FGF-P was given at a dose of 2 mg/kg im for three daily doses beginning 15 min after irradiation. […]

[3] = Plasma GI endocrine and exocrine markers after sub-TBI; format: in vivo, mouse (Balb/c); conditions: 10.5 Gy sub-TBI, 3.5 days
Source text: The gastrointestinal tract facilitates nutritional absorption and digestion through endocrine organs and exocrine function. Measurements of these functions in Balb/c mice with AGS, with and without FGF-P treatment have been made. Regarding endocrine function, critical proteins produced by epithelial cells lining the small intestine and/or the pancreas are: 1) secretin, which stimulates secretion of a bicarbonate-rich fluid from the pancreas and liver; and 2) insulin, produced by pancreatic β cells, which controls the level of blood glucose. Regarding exocrine function, a major digestive protein, amylase was measured. Amylase is secreted by epithelial cells along the GI tract, including the pancreas.
For secretin, the amino acid sequence in mice is ([…], SEQ ID NO: 4), which has a one amino acid change (M vs. T) at position 5. The kit for human secretin (Peninsula Laboratories, cat #S-1229) has been tested and it recognizes the mouse form. A mouse insulin kit is available (Linco Inc. Cat #EZRMI-13 K). The EnzChek Ultr Amylase Assay kit (Molecular Probes, Cat #E33651.3) can be used for all species, since it measures for the enzymatic product. Blood glucose level can be measured with a commercial kit from Sigma (Cat #GAG0-20 and GAHK-20) and is based on enzymatic activity, which is also universal to all species. Using these kits, the alterations in the plasma concentrations of the GI-derived proteins and peptides in mice that had been exposed to 10.5 Gy sub-TBI and, thereafter, received vehicle alone or FGF-P ([…] im) for 3 doses (10 min, 1 day, and 2 days post-IR) were measured. The samples were collected 3.5 days after irradiation.

Stability of FGF-P = format: physicochemical
[4] = Blood cell counts after 4 or 5 Gy TBI; format: in vivo, mouse
Source text: In parallel, the leucocytes and red cells were increased as compared to vehicle-treated mice that received the same IR dose (FIGS. 17C and D).

[5] = Tail vein bleeding time after 4 Gy TBI; format: in vivo, mouse; conditions: 10 days after 4 Gy TBI; FGF-P 15 mg/kg daily for 3 days then every other day for 3 times
Source text: The bleeding is stopped by coagulant cascade, mainly the platelet aggregation, the vessel contraction and thrombosis which are trigged by the released platelet granules (Francis 2007, Khorana 2005). IR blocks the megakaryocytopoiesis and reduces the thrombocytopoiesis (an imbalance between the synthesis and consuming of coagulant proteins), which leads to a prolonged bleeding time. To determine if FGF-P has any effect on the bleeding time, the a single tail vein at the same anatomy position was cut in same depth and merged into 37° C. warm water, the time between bleeding and stopping was recorded. The test was performed on 10 days after 4 Gy TBI.

Cdc42, Rac1, Mapk10, Cfl = test: Gene expression in irradiated BM cells (Luminex multiplex array); format: cell-based, mouse; conditions: treatment 20 min after 5 Gy IR, 6 hours, P<0.05
[6] = FGF-P (2 mg/ml im) 3 doses, P<0.05
[7] = vs vehicle-treated mice, same IR dose

## CC(C)C[C@H](NC(=O)[C@H](C)NC(=O)[C@@H](NC(=O)[C@H](Cc1ccc(O)cc1)NC(=O)[C@H](Cc1c[nH]c2ccccc12)NC(=O)[C@H](CO)NC(=O)[C@H](CO)NC(=O)[C@H](Cc1ccc(O)cc1)NC(=O)[C@H](CCCCN)NC(=O)[C@H](CCCNC(=N)N)NC(=O)[C@H](CO)NC(=O)[C@H](CCCNC(=N)N)NC(=O)[C@H](Cc1ccc(O)cc1)NC(=O)[C@@H](N)CS)C(C)C)C(=O)N[C@@H](CCCCN)C(=O)N[C@@H](CCCNC(=N)N)C(=O)N[C@@H](CS)C(=O)O [FGF-P, CYRSRKYSSWYVALKRC] (H-CYRSRKYSSWYVALKRC-OH; N-terminus and C-terminus assumed)
[1]; 7.1 Gy TBI, 15, 30, 60 mg/kg tested
  dose achieving best result: 60 mg/kg
[1]; 7.1 Gy TBI, FGF-P 15, 30, 60 mg/kg
  dose dependence of mitigation effect: dose-dependent effect
[1]; Balb/c, 6.5, 7 and 7.5 Gy TBI, FGF-P 1 mg/kg IM right after TBI, daily for 5 days
  mitigation effect on ARS, DMF: DMF similar to that of native FGF2
[1]; 6.5 Gy TBI
  mice survived: 87%
[1]; 7.5 Gy TBI
  mice survived: 66%
[1]; FGF-P given 8 hour after 7.1 Gy IR
  mitigation effect with delayed delivery: still effective
[2]
  stool hemoccult score: reduced stool hemoccult score
[3]; [6]
  plasma amylase level: restored it to normal levels
  plasma insulin levels: restored to near normal
  plasma level of secretin: reversed this effect
[3]; FGF-P (im) 3 doses
  blood glucose: better preserved
Stability of FGF-P; dry powder
  enzyme resistance: enzyme-resistant as a dry powder
Stability of FGF-P; severe conditions / liquid, boiling
  stability: stable as a liquid even with boiling; also recorded: stable under severe conditions, for example to boiling
Stability of FGF-P; stability test, boiled vs original form
  effectiveness of boiled FGF-P: as effective as the original form
[4]; 4 or 5 Gy TBI
  platelet counts: accelerated recovery of platelet counts
[4]; [7]
  leucocytes: increased
  red cells: increased
[5]
  bleeding time: shorter bleeding time
Cdc42, Rac1, Mapk10, Cfl
  expression of Cdc42: reversed the IR-suppressed expression
  expression of Cfl (cofilin 1): suppressed towards normal
  expression of Mapk10: suppressed towards normal
  expression of Rac1: reversed the IR-suppressed expression

Reference: patent US8871900B2, “Fibroblast growth factor (FGF) analogs and uses thereof” (University of Rochester, priority 2008, dated 2014)
